Experimental findings from patent publication US11111232B2, “Substituted cyclobutylpyridine and cyclobutylpyrimidine compounds as indoleamine 2,3-dioxygenase (IDO) inhibitors” (MERCK SHARP & DOHME CORP., priority 2017, dated 2021) are described below.

One assay concerns the target IDO1 (Homo sapiens, UniProt P14902). In words: IDO1 HEK293 cellular assay. It counts as cell-based. The settings on record: HEK293 cells transfected with Flag-IDO1 vector, 20-24 hours, fluorescence readout. The protocol: IDO1 HEK293 Cellular Assay
Compounds to be tested were serially diluted in ten 3-fold steps in DMSO starting from 10 mM DMSO stocks. Compound dilutions or DMSO alone were then dispensed from the dilution plate into a Greiner black 384-well assay plate (catalog #781086) using an Echo 550 acoustic liquid handler (Labcyte).
HEK293 cell pellets were resuspended to 5×10^5 cells/mL in complete HEK293 culture media (89% DMEM, 10% FBS, 1% penicillin/streptomycin). Suspended cells (2 mL) were dispensed into each well of a 6-well Corning plate (Catalog # 3516). Cells were allowed to attach and were incubated for 20 hours at 37° C. in a 5% CO2 incubator. Flag-IDO1 vector (Genscript True ORF Gold, 2 ug) in 150 uL of Opti-MEM medium was added to each well of a Corning 24 well plate (Cat # 3527) and incubated for 5 minutes at room temperature. To each well of the 24-well plate was added […] Lipofectamine 2000 (Gibco) and the plate incubated at room temperature for 20-30 minutes. To each well of attached cells in the 6-well plate, […] of the transfection mix from the 24-well plate was gently added to each well and IDO1 protein was allowed to express for 24-30 hours at 37 degrees Celsius in a 5% CO2 incubator.
Media was removed from the cells which were then washed with 2 mL Dulbecco's phosphate-buffered saline (DPBS). After removal of DPBS, 0.5 mL of TrypLE (Gibco) was added and incubated at 5 minutes until cells lift from the surface of the wells. Complete HEK293 culture media (4 mL) was added to each well and cells were collected and pooled into a conical tube. Cells were pelleted at 200×g for 5 minutes and resuspended in an equal volume of complete DMEM medium. Cells were diluted to 4×10^5 cells per mL in complete HEK293 media. L-Tryptophan was added to added to give a final concentration of […]. The diluted transfected cells […] or nontransfected cells […] were dispensed into wells of Greiner black 384-well assay plates (catalog #781086) containing previously diluted compounds. The plate is briefly mixed and centrifuged at 200×g for 10 seconds to collect cells at the bottom of the plate. Plates were covered and incubated for 20-24 hours at 37 degrees C. in a 5% CO2 incubator. Afterwards […] of 0.5 M methyl isonipecotate in dimethyl sulfoxide was added to each well, mixed, sealed, and centrifuged at 500 rpm for 10 seconds. Plates were incubated at 37 degrees in a 5% CO2 incubator overnight to develop fluoresence. The plates are allowed to cool and then centrifuged for 1 minute at 1000×g. The resulting fluoresence was measured in an Envision plate reader (Perkin Elmer) with a 400/25 nm excitation filter and an 510/20 nm emission filter.
The fluoresence intensity of each well was corrected for the background observed in wells with untransfected cells and was expressed as a fraction of the intensity observed in wells of IDO1 transfected cells and DMSO only. Potencies were calculated by linear least squares fit to the four parameter logistic IC50 equation.

For a further assay, the target named is T1, TDO (Homo sapiens, UniProt P48775).
T1 construct: endogenous in cells; host or cells: SW48 cells (A2780 cells as low-TDO control)
In words: TDO cellular assay in frozen SW48 cells. Particulars: 300 uM L-tryptophan, about 48 hours, fluorescence readout. It counts as cell-based.

IDO1, sequence (P14902 whole entry): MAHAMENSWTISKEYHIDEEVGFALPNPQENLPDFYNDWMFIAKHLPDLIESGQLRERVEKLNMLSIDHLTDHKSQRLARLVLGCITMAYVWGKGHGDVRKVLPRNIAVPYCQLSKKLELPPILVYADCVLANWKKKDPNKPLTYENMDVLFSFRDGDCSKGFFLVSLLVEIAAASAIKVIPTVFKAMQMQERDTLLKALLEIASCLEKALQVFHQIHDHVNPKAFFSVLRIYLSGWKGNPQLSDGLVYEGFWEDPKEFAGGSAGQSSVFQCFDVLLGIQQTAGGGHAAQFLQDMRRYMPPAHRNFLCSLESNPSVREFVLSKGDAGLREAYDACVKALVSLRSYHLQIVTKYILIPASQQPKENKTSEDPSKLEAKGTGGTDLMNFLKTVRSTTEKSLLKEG
T1 sequence (P48775 whole entry): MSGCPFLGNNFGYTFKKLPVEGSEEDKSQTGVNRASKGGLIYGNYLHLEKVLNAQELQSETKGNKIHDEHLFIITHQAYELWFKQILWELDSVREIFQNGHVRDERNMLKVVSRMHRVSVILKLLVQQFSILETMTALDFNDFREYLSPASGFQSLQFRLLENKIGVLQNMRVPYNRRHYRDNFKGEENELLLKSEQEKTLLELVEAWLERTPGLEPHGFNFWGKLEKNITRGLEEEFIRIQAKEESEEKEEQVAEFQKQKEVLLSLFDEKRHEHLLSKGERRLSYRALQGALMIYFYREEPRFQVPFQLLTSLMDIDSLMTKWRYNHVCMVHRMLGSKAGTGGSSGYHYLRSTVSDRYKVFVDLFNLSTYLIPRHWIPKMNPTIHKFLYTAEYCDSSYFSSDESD

As a reminder, the IC50 is the concentration that gives 50% inhibition. Higher therefore signals a need for much substance. For `O=C(Nc1ccc(C2(C(=O)Nc3ccc(F)cc3)CCC2)cn1)C1CCCCC1` [Example 15, N-(5-{1-[(4-fluorophenyl)carbamoyl]cyclobutyl}pyridin-2-yl) cyclohexanecarboxamide], the values for the 50% inhibitory concentration (IC50) against IDO1 and at TDO were 7 nM and no less than 10000 nM, respectively.
